pIC50: −log10 of the molar value. Values after ≈ are worked out from the molar mass of the structure shown. Where a SMILES comes first, the peptide text is derived from it. [ ]: non-standard residue; d: D form.
Tests used:
[1] = tested on: P. aeruginosa PAO1 biofilms; settings: for minimum inhibitory concentration of peptide that inhibited at least 90% of biofilm growth (MBIC90): P. aeruginosa PAO1 biofilms, >95% pure peptides, BM2 minimal media; for minimum inhibitory concentration of peptide that inhibited at least 90% of biofilm growth (MBIC90) / pIC50: crystal violet; for pIC50: read-out: Biofilm Inhibition IC50, PAO1, 24 hours
[2] = tested on: P. aeruginosa LESB58; experiment: Murine sinusitis model, P. aeruginosa; format: in vivo, mouse; Pseudomonas aeruginosa
Source text: FIGS. 15A-15I show peptides AB101-D, AB102-D and AB103-D compared to DJK5 in a murine sinusitis model of bacterial infections. MRSA USA300, nasal cavity (FIG. 15A) P. aeruginosa LESB58 (FIG. 15B and FIG. 15C, nasal cavity); MRSA USA300, lung tissue (FIG. 15D) P. aeruginosa LESB58 (FIG. 15E and FIG. 15F, lung tissue); and MRSA USA300, weight change (FIG. 15G) P. aeruginosa LESB58 (FIG. 15H and FIG. 15I, weight change).
A murine sinusitis model of bacterial infections in the nasal cavity of mice [Alford et al. (2021). Murine model of sinusitis infection for screening antimicrobial and immunomodulatory therapies. Frontiers in Cellular and Infection Microbiology., 11, 621081] was used to determine the efficacy of D-amino acid peptides AB101-D, AB102-D and AB103-D compared to DJK5. […]. Treatment was applied either as dropwise administration of a peptide solution (20 μl) to the infected naris of a mouse (FIGS. 15A, 15B, 15D, 15E, 15G, 15H) or peptide was delivered using a Respimat® inhaler device (FIGS. 15C, 15F, 15I). Mice were monitored and weighed once daily for up to three days then euthanized prior to collection of nasal lavage fluid and lung tissue for bacterial enumeration. The limit of detection is shown by the dotted line at log CFU=2. […] Accordingly, the results indicated enhanced efficacy of D-amino acid peptides AB101-D, AB102-D and AB103-D compared to DJK5 in this murine model.

[3] = tested on: Klebsiella pneumoniae; experiment: MIC (broth microdilution) of peptides, K. pneumoniae; format: cell-based; settings: mode of three biological replicates
Procedure: Minimal inhibitory concentration (MIC) against planktonic bacteria: The MIC of the synthetic peptides was determined in Mueller-Hinton broth (MHB) using the broth microdilution method described previously [Wiegand, I., Hilpert, K., & Hancock, R. E. (2008). Agar and broth dilution methods to determine the minimal inhibitory concentration (MIC) of antimicrobial substances. Nature Protocols, 3(2), 163-175]. Briefly, 10 μl of a 10× concentrated peptide solution was placed in the bottom of a well in a 96-well polypropylene round bottom plate (Corning Inc.). A bacterial suspension of ~5×10^5 CFU/ml was prepared from an overnight culture and 90 μl of this was added to each well. […] Bacteria tested included P. aeruginosa PAO1, MRSA USA300 LAC, Staphylococcus haemolyticus, Staphylococcus epidermidis, Klebsiella pneumoniae and Streptococcus salivarius.
Finally, the AB103-D derivatives that were the least aggregation prone and which produced the lowest toxic effects in vivo were evaluated for their direct antibacterial activity towards several pathogens of clinical relevance using a standard minimum inhibitory concentration (MIC) assay [Wiegand, I., Hilpert, K., & Hancock, R. E. (2008). Agar and broth dilution methods to determine the minimal inhibitory concentration (MIC) of antimicrobial substances. Nature Protocols, 3(2), 163-175]. Specifically, peptides AB110-D, AB111-D, AB114-D and AB115-D were tested against P. aeruginosa PAO1, MRSA USA 300, Staphylococcus haemolyticus, Staphylococcus epidermidis, Klebsiella pneumoniae and Streptococcus salivarius and compared against the antibacterial activity of DJK-5 and AB103-D (Table 7). Overall, the antibacterial potency of all of the AB103-D derivatives was stronger than that seen for DJK-5, particularly in the case of the Gram-negative pathogens P. aeruginosa and K. pneumoniae. […]

[4] = tested on: Enterobacter cloacae 218R1; experiment: Biofilm inhibition (at least 80%), E. cloacae; format: cell-based; settings: E. cloacae 218R1; n = 3; BM2 minimal media; 18-24 hours; crystal violet
[5] = tested on: Acinetobacter baumannii Ab5075; experiment: Biofilm inhibition (at least 80%), A. baumannii; format: cell-based; settings: n = 4, BM2 minimal media, 18-24 hours, crystal violet
[6] = Peptide aggregation in RPMI + 10% FBS with PBMCs (microscopy); format: physicochemical; settings: 50 μg/ml, overnight
Summary of the method: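 Peptides added to human PBMCs in RPMI with 10% FBS, incubated overnight at 37 °C, 5% CO2; aggregation assessed qualitatively by inverted light microscopy at 10× magnification.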

[7] = Subdermal murine toxicity model; settings: for Clinical score: 1 hour after subcutaneous administration, comparator DJK-5
Summary of the method: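 Peptides given subdermally to shaved, depilated, isoflurane-anaesthetised female CD-1 mice (8 weeks, 25±5 g) at 4 mg/kg. Summed clinical scores taken at 1 h; cyst or lesion presence and caliper size recorded at 16 h. Values are the mean of two independent replicates.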

**Q.** Which results are given for `CC[C@@H](C)[C@@H](NC(=O)[C@@H](C)NC(=O)[C@@H](CCCNC(=N)N)NC(=O)[C@@H](Cc1c[nH]c2ccccc12)NC(=O)[C@@H](CCC(N)=O)NC(=O)[C@H](NC(=O)[C@@H](CCCNC(=N)N)NC(=O)[C@H](NC(=O)[C@H](NC(=O)[C@@H](CCCNC(=N)N)NC(=O)[C@H](NC(=O)[C@H](N)CCCNC(=N)N)C(C)C)C(C)C)[C@H](C)CC)C(C)C)C(N)=O` [AB103-D, rvrvirvqwrai-NH2] (H-[dR][dV][dR][dV][dI][dR][dV][dQ][dW][dR][dA][dI]-NH2)?
**A.** Biofilm inhibition activity compared to DJK5 ([1]; P. aeruginosa): ≥ 4 fold; minimum inhibitory concentration of peptide that inhibited at least 90% of biofilm growth (MBIC90) [1]: 8 µM; pIC50 [1]: 5.72; Bacteria in nasal cavity and lungs ([2]; P. aeruginosa LESB58, 0.1 mg dose, compared to DJK5): reduced the amount of bacteria in the nasal cavity and lungs of mice much more than DJK5 treatment; MIC [3]: 0.8 µg/mL (≈ 0.516 µM); Peptide/Antibiotic Concentration where at least 80% of biofilm growth was inhibited [4]: 1 µg/mL; Peptide/Antibiotic Concentration where at least 80% of biofilm growth was inhibited [5]: 1 µg/mL; Peptide aggregation [6]: some small aggregates; Clinical score [7]: < 2; Average cyst size compared to DJK-5 ([7]; 16 hours after administration, 4 mg/kg): smaller than those induced by DJK-5

**Q.** With `CC[C@@H](C)[C@@H](NC(=O)[C@@H](C)NC(=O)[C@@H](CCCNC(=N)N)NC(=O)[C@@H](Cc1c[nH]c2ccccc12)NC(=O)[C@@H](CCC(N)=O)NC(=O)[C@H](N)C(C)C)C(=O)N[C@H](CCCNC(=N)N)C(=O)N[C@@H](C(=O)N[C@H](CCCNC(=N)N)C(=O)N[C@@H](C(=O)N[C@@H](C(=O)N[C@H](CCCNC(=N)N)C(N)=O)[C@H](C)CC)C(C)C)C(C)C` [DJK5, vqwrairvrvir-NH2] (H-[dV][dQ][dW][dR][dA][dI][dR][dV][dR][dV][dI][dR]-NH2) as the compound, how does the “minimum inhibitory concentration of peptide that inhibited at least 90% of biofilm growth (MBIC90)” value [1] read?
**A.** Its value is 16 µM.

**Q.** What about the pIC50 [1] of the same compound?
**A.** The pIC50 was 5.13.

**Q.** And the Weight loss ([2]; P. aeruginosa LESB58 infected mice)?
**A.** Its Weight loss is “did not prevent weight loss”.

**Q.** And the MIC [3]?
**A.** The MIC was 3 µg/mL (≈ 1.93 µM).

**Q.** What about the “Peptide/Antibiotic Concentration where at least 80% of biofilm growth was inhibited” value [4] of the same compound?
**A.** Its value is 2 µg/mL.

**Q.** And the “Peptide/Antibiotic Concentration where at least 80% of biofilm growth was inhibited” value [5]?
**A.** The value was 2 µg/mL.

**Q.** And the Peptide aggregation [6]?
**A.** Its Peptide aggregation is “No appreciable aggregation”.

**Q.** And the Clinical score [7]?
**A.** Its Clinical score is 2.

— patent US20260374818A1, “CATIONIC PEPTIDES WITH BROAD SPECTRUM ACTIVITY” (priority 2023, published 2026)
